Laboratory results published in patent publication US10947252B2, “Inhibitors of KEAP1-Nrf2 protein-protein interaction” (Janssen Pharmaceutica NV, priority 2018, dated 2021).

Experiments:
[1] = target: Kelch domain of human KEAP1 (321-624 aa) (Homo sapiens (Human), UniProt Q14145); assay: KEAP1 KELCH ThermoFluor binding assay; settings: KEAP Kelch […], 1,8-ANS, pH 7.0, average of results obtained, read-out: Tf Kd;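 note: Ligand-induced melting temperature shift of E. coli-expressed KEAP1 Kelch protein, Kd estimated from concentration-response curves of ΔTm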
Chain of Kelch domain of human KEAP1 (321-624 aa) (Q14145 321-624): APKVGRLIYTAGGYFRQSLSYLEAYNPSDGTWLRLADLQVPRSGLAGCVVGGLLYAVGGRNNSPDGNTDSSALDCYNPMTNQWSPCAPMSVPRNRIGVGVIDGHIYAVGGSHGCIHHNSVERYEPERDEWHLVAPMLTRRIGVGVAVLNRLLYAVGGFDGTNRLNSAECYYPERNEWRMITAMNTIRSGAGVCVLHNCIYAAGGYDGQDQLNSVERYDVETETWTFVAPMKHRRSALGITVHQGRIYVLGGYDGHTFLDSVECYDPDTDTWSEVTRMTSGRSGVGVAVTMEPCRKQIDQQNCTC

[2] = tested on: Glo-Response ARE-luc2P HEK293 cell line; assay: ARE luciferase reporter cell-based assay; settings: Homo sapiens, HEK293, 24 h, average of results obtained;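 note: luciferase signal tracks Nrf2 activation of the ARE once compounds disrupt KEAP1-Nrf2 binding, read with One-Glo reagent, DMSO serving as low control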
Description: The ARE assay utilizes a luciferase reporter cell line where the signal is proportional to NrF2 activation of the ARE. The cell line is commercially available from Promega and was prepared by stably transfecting HEK293 cells with a vector (pGL4.11) which contains the ARE response element upstream of a minimal promoter. The promoter drives expression of luc2 firefly luciferase gene. Upon disruption of KEAP1-Nrf2 binding by compound, Nrf2 translocates into the nucleus where it binds to the ARE and activates transcription of luciferase.
The materials used in this ARE assay are as follows: Glo-Response ARE-luc2P HEK293 cell line and One-Glo Luciferase Assay System were purchased from Promega (Madison, Wis.). Dulbecco's Modified Eagle medium ((DMEM), low glucose, GlutaMAX, pyruvate), fetal bovine serum (certified, heat inactivated), hygromycin B, Dulbecco's phosphate-buffered saline were purchased from Life Technologies (Grand Island, N.Y.). Penicillin, streptomycin solution (100×) and 0.05% trypsin-EDTA were purchased from Corning (Manassas, Va.). DMSO was purchased from EMD Millipore.
The ARE assay protocol is as follows: cells were maintained in growth medium (DMEM+10% FBS, 200 μg/mL hygromycin B, p-s) between 20-90% confluency by splitting twice per week. One day before the assay, cells were trypsinized, counted to determine viable cell count, and re-suspended in assay medium (DMEM+10% FBS, p-s) at 250,000 cells/mL. […] 100% DMSO was used as the low control. A 11-point dose series of the control compound was included on every plate. Compounds were spotted to an intermediate plate (Greiner #781280 V-bottom 384 well plate) using the Echo acoustic dispenser (Labscyte San Jose, Calif.). Spot size was 240 nL.
On the day of the assay, 60 mL per well of assay medium was added to the pre-spotted plate to make 2× compound stocks using the Combi (Thermo Waltham, Mass.). Compound and medium were mixed on the Janus and 20 mL of 2×compound stock was added to the cell plate which already contained 20 mL of assay medium from cell plating. […] The plates were returned to the tissue culture incubator for 24 hours.
The next day, luciferase activity was measured according to the manufacturer's protocol for One-Glo luciferase reagent. The plates were removed from the incubator and allowed to equilibrate to room temperature for 30 min. Forty microliters of One-Glo reagent (equilibrated to room temperature) was added per well using the Combi. The plates were mixed on an orbital shaker for 3 min. Luminescence was read on the BMG Pherastar multiplate reader (Cary, N.C.) using the luminescence protocol (1 sec interval).
The dose-response data were analyzed in Genedata Screener using 4PL nonlinear regression model. Raw luminescence counts as well as normalized values were used for data analysis.

| Compound | Kd [1] [nM] | EC50 [2] [nM] |
| --- | --- | --- |
| Cc1ccc([C@H](CC(=O)O)c2ccn3c(C(F)F)nnc3c2C)cc1CN1CC2(CCOCC2)Oc2ncc(F)cc2S1(=O)=O (single isomer, unassigned) [Example 533, (*S)-3-(3-(Difluoromethyl)-8-methyl-[1,2,4]triazolo[4,3-a]pyridin-7-yl)-3-(3-((8′-fluoro-1′,1′-dioxido-2,3,5,6-tetrahydrospiro[pyran-4,4′-pyrido[2,3-b][1,4,5]oxathiazepin]-2′(3′H)-yl)methyl)-4-methylphenyl)propanoic Acid] | < 1 | 31.3 |
| Cc1ccc([C@@H](CC(=O)O)c2ccn3c(C(F)F)nnc3c2C)cc1CN1CC2(CCOCC2)Oc2ncc(F)cc2S1(=O)=O (single isomer, unassigned) [Example 534, (*R)-3-(3-(Difluoromethyl)-8-methyl-[1,2,4]triazolo[4,3-a]pyridin-7-yl)-3-(3-((8′-fluoro-1′,1′-dioxido-2,3,5,6-tetrahydrospiro[pyran-4,4′-pyrido[2,3-b][1,4,5]oxathiazepin]-2′(3′H)-yl)methyl)-4-methylphenyl)propanoic Acid] | < 1 | 99.2 |
| Cc1cnc2c(c1)S(=O)(=O)N(Cc1cc([C@H](CC(=O)O)c3ccn4c(C(F)F)nnc4c3C)ccc1C)CC1(CC1)O2 (single isomer, unassigned) [Example 536, (*S)-3-(3-(Difluoromethyl)-8-methyl-[1,2,4]triazolo[4,3-a]pyridin-7-yl)-3-(4-methyl-3-((8′-methyl-1′,1′-dioxidospiro[cyclopropane-1,4′-pyrido[2,3-b][1,4,5]oxathiazepin]-2′(3′H)-yl)methyl)phenyl)propanoic Acid] | < 1 | 59.7 |
| Cc1cnc2c(c1)S(=O)(=O)N(Cc1cc([C@@H](CC(=O)O)c3ccn4c(C(F)F)nnc4c3C)ccc1C)CC1(CC1)O2 (single isomer, unassigned) [Example 537, (*R)-3-(3-(Difluoromethyl)-8-methyl-[1,2,4]triazolo[4,3-a]pyridin-7-yl)-3-(4-methyl-3-((8′-methyl-1′,1′-dioxidospiro[cyclopropane-1,4′-pyrido[2,3-b][1,4,5]oxathiazepin]-2′(3′H)-yl)methyl)phenyl)propanoic Acid] | < 1 | 464 |
| Cc1ccc2c(n1)OC1(CC1)CN(Cc1cc([C@H](CC(=O)O)c3ccn4c(C(F)(F)F)nnc4c3C)ccc1C)S2(=O)=O (single isomer, unassigned) [Example 538, (*S)-3-(4-Methyl-3-((7′-methyl-1′,1′-dioxidospiro[cyclopropane-1,4′-pyrido[2,3-b][1,4,5]oxathiazepin]-2′(3′H)-yl)methyl)phenyl)-3-(8-methyl-3-(trifluoromethyl)-[1,2,4]triazolo[4,3-a]pyridin-7-yl)propanoic Acid] | < 1 | 58.9 |
| Cc1ccc([C@H](CC(=O)O)c2ccn3c(C(F)F)nnc3c2C)cc1CN1C[C@H]2CCCN2c2ncc(C#N)cc2S1(=O)=O (single isomer, unassigned) [Example 540, (*S)-3-(3-(((*R)-3-Cyano-5,5-dioxido-7a,8,9,10-tetrahydropyrido[2,3-f]pyrrolo[2,1-d][1,2,5]thiadiazepin-6(7H)-yl)methyl)-4-methylphenyl)-3-(3-(difluoromethyl)-8-methyl-[1,2,4]triazolo[4,3-a]pyridin-7-yl)propanoic Acid] | < 1 | 26.7 |
| Cc1ccc([C@@H](CC(=O)O)c2ccn3c(C(F)F)nnc3c2C)cc1CN1C[C@H]2CCCN2c2ncc(C#N)cc2S1(=O)=O (single isomer, unassigned) [Example 541, (*R)-3-(3-(((*R)-3-Cyano-5,5-dioxido-7a,8,9,10-tetrahydropyrido[2,3-f]pyrrolo[2,1-d][1,2,5]thiadiazepin-6(7H)-yl)methyl)-4-methylphenyl)-3-(3-(difluoromethyl)-8-methyl-[1,2,4]triazolo[4,3-a]pyridin-7-yl)propanoic Acid] | < 1 | 223 |
| Cc1ccc([C@H](CC(=O)O)c2ccn3c(C(F)F)nnc3c2C)cc1CN1C[C@@H]2CCCN2c2ncc(C#N)cc2S1(=O)=O (single isomer, unassigned) [Example 543, (*S)-3-(3-(((S)-3-Cyano-5,5-dioxido-7a,8,9,10-tetrahydropyrido[2,3-f]pyrrolo[2,1-d][1,2,5]thiadiazepin-6(7H)-yl)methyl)-4-methylphenyl)-3-(3-(difluoromethyl)-8-methyl-[1,2,4]triazolo[4,3-a]pyridin-7-yl)propanoic Acid] | < 1 | 42.9 |
| Cc1ccc([C@@H](CC(=O)O)c2ccn3c(C(F)F)nnc3c2C)cc1CN1C[C@@H]2CCCN2c2ncc(C#N)cc2S1(=O)=O (single isomer, unassigned) [Example 544, (*R)-3-(3-(((S)-3-Cyano-5,5-dioxido-7a,8,9,10-tetrahydropyrido[2,3-f]pyrrolo[2,1-d][1,2,5]thiadiazepin-6(7H)-yl)methyl)-4-methylphenyl)-3-(3-(difluoromethyl)-8-methyl-[1,2,4]triazolo[4,3-a]pyridin-7-yl)propanoic Acid] | < 1 | 278 |
| Cc1ccc([C@H](CC(N)=O)c2ccn3c(C(F)(F)F)nnc3c2C)cc1CN1C[C@@H]2CCCCN2c2ncccc2S1(=O)=O (single isomer, unassigned) [Example 548, (*S)-3-(3-(((*S)-5,5-Dioxido-7,7a,8,9,10,11-hexahydro-6H-dipyrido[2,1-d:2′,3′-f][1,2,5]thiadiazepin-6-yl)methyl)-4-methylphenyl)-3-(8-methyl-3-(trifluoromethyl)-[1,2,4]triazolo[4,3-a]pyridin-7-yl)propanamide] | 260 | 2740 |
| Cc1ccc([C@@H](CC(N)=O)c2ccn3c(C(F)(F)F)nnc3c2C)cc1CN1C[C@@H]2CCCCN2c2ncccc2S1(=O)=O (single isomer, unassigned) [Example 549, (*R)-3-(3-(((*S)-5,5-Dioxido-7,7a,8,9,10,11-hexahydro-6H-dipyrido[2,1-d:2′,3′-f][1,2,5]thiadiazepin-6-yl)methyl)-4-methylphenyl)-3-(8-methyl-3-(trifluoromethyl)-[1,2,4]triazolo[4,3-a]pyridin-7-yl)propanamide] | 84600 | > 20000 |
| Cc1ccc([C@H](CC(=O)O)c2ccn3c(C(F)F)nnc3c2C)cc1CN1CC2(CC2)Oc2ncc(C(N)=O)cc2S1(=O)=O (single isomer, unassigned) [Example 552, (*S)-3-(3-((8′-Carbamoyl-1′,1′-dioxidospiro[cyclopropane-1,4′-pyrido[2,3-b][1,4,5]oxathiazepin]-2′(3′H)-yl)methyl)-4-methylphenyl)-3-(3-(difluoromethyl)-8-methyl-[1,2,4]triazolo[4,3-a]pyridin-7-yl)propanoic Acid] | 150 | > 20000 |
| Cc1ccc([C@@H](CC(=O)O)c2ccn3c(C(F)F)nnc3c2C)cc1CN1CC2(CC2)Oc2ncc(C(N)=O)cc2S1(=O)=O (single isomer, unassigned) [Example 553, (*R)-3-(3-((8′-Carbamoyl-1′,1′-dioxidospiro[cyclopropane-1,4′-pyrido[2,3-b][1,4,5]oxathiazepin]-2′(3′H)-yl)methyl)-4-methylphenyl)-3-(3-(difluoromethyl)-8-methyl-[1,2,4]triazolo[4,3-a]pyridin-7-yl)propanoic Acid] | 769 | > 20000 |
| Cc1ccc([C@H](c2ccn3c(C(F)(F)F)nnc3c2C)[C@H](C)C(=O)O)cc1CN1CC2(CC2)Oc2ncccc2S1(=O)=O (single isomer, unassigned) [Example 554, (2S,3*R)-3-(3-(Trifluoromethyl)-8-methyl-[1,2,4]triazolo[4,3-a]pyridin-7-yl)-3-(3-((1′,1′-dioxidospiro[cyclopropane-1,4′-pyrido[2,3-b][1,4,5]oxathiazepin]-2′(3′H)-yl)methyl)-4-methylphenyl)-2-methylpropanoic Acid] | < 1 | 181 |
| CCn1nnc2c(C)c([C@H](c3ccc(C)c(CN4CC5(CCOCC5)Oc5ncccc5S4(=O)=O)n3)C(C)(C)C(=O)O)ccc21 (single isomer, unassigned) [Example 555, (*S)-3-(6-((1′,1′-Dioxido-2,3,5,6-tetrahydrospiro[pyran-4,4′-pyrido[2,3-b][1,4,5]oxathiazepin]-2′(3′H)-yl)methyl)-5-methylpyridin-2-yl)-3-(1-ethyl-4-methyl-1H-benzo[d][1,2,3]triazol-5-yl)-2,2-dimethylpropanoic Acid] | < 1 | 1.42 |
| CCn1nnc2c(C)c([C@@H](c3ccc(C)c(CN4CC5(CCOCC5)Oc5ncccc5S4(=O)=O)n3)C(C)(C)C(=O)O)ccc21 (single isomer, unassigned) [Example 556, (*R)-3-(6-((1′,1′-Dioxido-2,3,5,6-tetrahydrospiro[pyran-4,4′-pyrido[2,3-b][1,4,5]oxathiazepin]-2′(3′H)-yl)methyl)-5-methylpyridin-2-yl)-3-(1-ethyl-4-methyl-1H-benzo[d][1,2,3]triazol-5-yl)-2,2-dimethylpropanoic Acid] | 4940 | 1750 |
| CCn1nnc2c(C)c([C@H](c3ccc(C)c(CN4CC5(CCOCC5)Oc5ncc(C)cc5S4(=O)=O)n3)C(C)(C)C(=O)O)ccc21 (single isomer, unassigned) [Example 557, (*S)-3-(1-Ethyl-4-methyl-1H-benzo[d][1,2,3]triazol-5-yl)-2,2-dimethyl-3-(5-methyl-6-((8′-methyl-1′,1′-dioxido-2,3,5,6-tetrahydrospiro[pyran-4,4′-pyrido[2,3-b][1,4,5]oxathiazepin]-2′(3′H)-yl)methyl)pyridin-2-yl)propanoic Acid] | < 1 | 0.56 |
